Reference: PubChem BioAssay (NCI)
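Step 1: Grow cells in 96-well plates. Step 2: Expose to compound for 48 hours at 5 concentrations. Step 3: Interpolate endpoints linearly; if unreached, use highest concentration. GI50 marks 50% less growth. Definition used: TGI = concentration required for complete inhibition of growth.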

Key:
Test in all cases: inhibition of tumour cell growth, NCI panel, 48 h
786-0 renal = tested on: 786-0 renal
RXF 393 renal = tested on: RXF 393 renal
HCT-116 colon = tested on: HCT-116 colon
TK-10 renal = tested on: TK-10 renal
ACHN renal = tested on: ACHN renal
SNB-75 CNS = tested on: SNB-75 CNS
NCI/ADR-RES ovarian = tested on: NCI/ADR-RES ovarian
KM12 colon = tested on: KM12 colon
M14 melanoma = tested on: M14 melanoma
CAKI-1 renal = tested on: CAKI-1 renal
HOP-92 NSCLC = tested on: HOP-92 NSCLC
SN12C renal = tested on: SN12C renal
SNB-19 CNS = tested on: SNB-19 CNS
SK-MEL-5 melanoma = tested on: SK-MEL-5 melanoma
MDA-MB-231 breast = tested on: MDA-MB-231 breast
BT-549 breast = tested on: BT-549 breast
A498 renal = tested on: A498 renal
A549 NSCLC = tested on: A549 NSCLC
SK-MEL-28 melanoma = tested on: SK-MEL-28 melanoma
HT29 colon = tested on: HT29 colon
NCI-H460 lung = tested on: NCI-H460 lung
OVCAR-4 ovarian = tested on: OVCAR-4 ovarian
MDA-MB-435 = tested on: MDA-MB-435
U251 CNS = tested on: U251 CNS
SF-295 CNS = tested on: SF-295 CNS
UACC-62 melanoma = tested on: UACC-62 melanoma
SW-620 colon = tested on: SW-620 colon
HCC-2998 colon = tested on: HCC-2998 colon
NCI-H23 lung = tested on: NCI-H23 lung
HOP-62 NSCLC = tested on: HOP-62 NSCLC
IGROV1 ovarian = tested on: IGROV1 ovarian
EKVX NSCLC = tested on: EKVX NSCLC
UO-31 renal = tested on: UO-31 renal
SR leukemia = tested on: SR leukemia
MCF7 breast = tested on: MCF7 breast
COLO 205 colon = tested on: COLO 205 colon
K-562 leukemia = tested on: K-562 leukemia
SK-OV-3 ovarian = tested on: SK-OV-3 ovarian
MOLT-4 leukemia = tested on: MOLT-4 leukemia
OVCAR-3 ovarian = tested on: OVCAR-3 ovarian
OVCAR-8 ovarian = tested on: OVCAR-8 ovarian
NCI-H522 lung = tested on: NCI-H522 lung
SK-MEL-2 melanoma = tested on: SK-MEL-2 melanoma
HL-60(TB) leukemia = tested on: HL-60(TB) leukemia
LOX IMVI melanoma = tested on: LOX IMVI melanoma
DU-145 prostate = tested on: DU-145 prostate
HCT-15 colon = tested on: HCT-15 colon
RPMI-8226 leukemia = tested on: RPMI-8226 leukemia
CCRF-CEM leukemia = tested on: CCRF-CEM leukemia
OVCAR-5 ovarian = tested on: OVCAR-5 ovarian
NCI-H226 lung = tested on: NCI-H226 lung
HS 578T breast = tested on: HS 578T breast
T-47D breast = tested on: T-47D breast
SF-539 CNS = tested on: SF-539 CNS
SF-268 CNS = tested on: SF-268 CNS
PC-3 prostate = tested on: PC-3 prostate
UACC-257 melanoma = tested on: UACC-257 melanoma
MALME-3M melanoma = tested on: MALME-3M melanoma

## COc1ccc(CCn2c3c(c4c(O)cccc42)C(=O)c2ccccc2-3)cc1OC
786-0 renal
  GI50: 36.8 µM
  TGI: > 69.4 µM
RXF 393 renal
  GI50: > 79 µM
  TGI: > 100 µM
HCT-116 colon
  GI50: 26.1 µM
  TGI: > 57.5 µM
TK-10 renal
  GI50: 28.6 µM
  TGI: > 74.1 µM
ACHN renal
  GI50: 13.6 µM
  TGI: > 52.7 µM
SNB-75 CNS
  GI50: > 100 µM
  TGI: > 100 µM
NCI/ADR-RES ovarian
  GI50: 21 µM
  TGI: > 69.2 µM
KM12 colon
  GI50: 22.1 µM
  TGI: > 81.9 µM
M14 melanoma
  GI50: 43.3 µM
  TGI: > 84.4 µM
CAKI-1 renal
  GI50: 36.3 µM
  TGI: > 96.5 µM
HOP-92 NSCLC
  GI50: > 72.5 µM
  TGI: > 100 µM
SN12C renal
  GI50: 50.7 µM
  TGI: > 100 µM
SNB-19 CNS
  GI50: > 100 µM
  TGI: > 100 µM
SK-MEL-5 melanoma
  GI50: 18.8 µM
  TGI: > 60.3 µM
MDA-MB-231 breast
  GI50: 41.5 µM
  TGI: > 90.9 µM
BT-549 breast
  GI50: 6.57 µM
  TGI: > 47.7 µM
A498 renal
  GI50: > 100 µM
  TGI: > 100 µM
A549 NSCLC
  GI50: 32.9 µM
  TGI: > 100 µM
SK-MEL-28 melanoma
  GI50: > 80.2 µM
  TGI: > 100 µM
HT29 colon
  GI50: 43.5 µM
  TGI: > 100 µM
NCI-H460 lung
  GI50: 31.2 µM
  TGI: > 96.5 µM
OVCAR-4 ovarian
  GI50: 71.8 µM
  TGI: > 100 µM
MDA-MB-435
  GI50: 20 µM
  TGI: > 83.7 µM
U251 CNS
  GI50: 41.8 µM
  TGI: > 100 µM
SF-295 CNS
  GI50: 30.8 µM
  TGI: > 81.6 µM
UACC-62 melanoma
  GI50: 21.5 µM
  TGI: > 72.9 µM
SW-620 colon
  GI50: 31.1 µM
  TGI: > 75.6 µM
HCC-2998 colon
  GI50: 19.5 µM
  TGI: 43.4 µM
NCI-H23 lung
  GI50: 25.3 µM
  TGI: > 77.7 µM
HOP-62 NSCLC
  GI50: > 35.6 µM
  TGI: > 59.3 µM
IGROV1 ovarian
  GI50: 0.818 µM
  TGI: > 47.4 µM
EKVX NSCLC
  GI50: 29.3 µM
  TGI: > 94.7 µM
UO-31 renal
  GI50: 37.5 µM
  TGI: > 100 µM
SR leukemia
  GI50: 12.9 µM
  TGI: 34 µM
MCF7 breast
  GI50: 34.8 µM
  TGI: > 100 µM
COLO 205 colon
  GI50: 29.1 µM
  TGI: > 87.3 µM
K-562 leukemia
  GI50: 12.5 µM
  TGI: 69.7 µM
SK-OV-3 ovarian
  GI50: > 100 µM
  TGI: > 100 µM
MOLT-4 leukemia
  GI50: 19.9 µM
  TGI: 63.9 µM
OVCAR-3 ovarian
  GI50: 54.1 µM
  TGI: > 100 µM
OVCAR-8 ovarian
  GI50: 34.3 µM
  TGI: > 83.6 µM
NCI-H522 lung
  GI50: 20.8 µM
  TGI: > 60.4 µM
SK-MEL-2 melanoma
  GI50: 24.1 µM
  TGI: > 95.3 µM
HL-60(TB) leukemia
  GI50: 20.3 µM
  TGI: 53 µM
LOX IMVI melanoma
  GI50: > 45 µM
  TGI: > 73.3 µM
DU-145 prostate
  GI50: > 60.6 µM
  TGI: > 100 µM
HCT-15 colon
  GI50: 22.5 µM
  TGI: > 73.4 µM
RPMI-8226 leukemia
  GI50: 21.2 µM
  TGI: > 70.8 µM
CCRF-CEM leukemia
  GI50: 20 µM
  TGI: > 66.8 µM
OVCAR-5 ovarian
  GI50: > 42 µM
  TGI: > 84.2 µM
NCI-H226 lung
  GI50: > 56.1 µM
  TGI: > 100 µM
HS 578T breast
  GI50: 46.2 µM
  TGI: > 85.4 µM
T-47D breast
  GI50: 67.9 µM
  TGI: > 100 µM
SF-539 CNS
  GI50: 6.65 µM
  TGI: > 51.2 µM
SF-268 CNS
  GI50: 38.9 µM
  TGI: > 100 µM
PC-3 prostate
  GI50: 37.4 µM
  TGI: > 100 µM
UACC-257 melanoma
  GI50: 52.6 µM
  TGI: 98.6 µM

## CCN1CCC(Oc2c(C#N)ncc3[nH]c4ncccc4c23)CC1
786-0 renal
  GI50: 1.71 µM
  TGI: > 50 µM
RXF 393 renal
  GI50: 0.559 µM
  TGI: 4.16 µM
HCT-116 colon
  GI50: 7.2 µM
  TGI: > 50 µM
TK-10 renal
  GI50: 5.21 µM
  TGI: 41.7 µM
ACHN renal
  GI50: 0.466 µM
  TGI: > 50 µM
SNB-75 CNS
  GI50: 12.9 µM
  TGI: 29.8 µM
NCI/ADR-RES ovarian
  GI50: 2.78 µM
  TGI: > 50 µM
KM12 colon
  GI50: 2.83 µM
  TGI: > 50 µM
M14 melanoma
  GI50: 0.357 µM
  TGI: > 50 µM
HOP-92 NSCLC
  GI50: > 50 µM
  TGI: > 50 µM
SN12C renal
  GI50: 14.2 µM
  TGI: > 50 µM
SNB-19 CNS
  GI50: 14.7 µM
  TGI: > 50 µM
SK-MEL-5 melanoma
  GI50: 7.12 µM
  TGI: > 50 µM
MDA-MB-231 breast
  GI50: 21.5 µM
  TGI: > 50 µM
BT-549 breast
  GI50: 1.96 µM
  TGI: 21 µM
A498 renal
  GI50: 0.296 µM
  TGI: 10.5 µM
A549 NSCLC
  GI50: 14.1 µM
  TGI: > 50 µM
SK-MEL-28 melanoma
  GI50: 16.2 µM
  TGI: > 50 µM
HT29 colon
  GI50: 10.2 µM
  TGI: > 50 µM
NCI-H460 lung
  GI50: 7.33 µM
  TGI: > 50 µM
OVCAR-4 ovarian
  GI50: 7.88 µM
  TGI: > 50 µM
MDA-MB-435
  GI50: 1.88 µM
  TGI: > 50 µM
U251 CNS
  GI50: 15.7 µM
  TGI: > 50 µM
SF-295 CNS
  GI50: 2.04 µM
  TGI: > 50 µM
UACC-62 melanoma
  GI50: 18.1 µM
  TGI: > 50 µM
SW-620 colon
  GI50: 12.2 µM
  TGI: > 50 µM
HCC-2998 colon
  GI50: 20.3 µM
  TGI: > 50 µM
NCI-H23 lung
  GI50: 3.25 µM
  TGI: > 50 µM
HOP-62 NSCLC
  GI50: 13.2 µM
  TGI: > 50 µM
IGROV1 ovarian
  GI50: 15.6 µM
  TGI: > 50 µM
EKVX NSCLC
  GI50: 14.5 µM
  TGI: > 50 µM
UO-31 renal
  GI50: 3.94 µM
  TGI: > 50 µM
SR leukemia
  GI50: 1.32 µM
  TGI: 22.3 µM
MCF7 breast
  GI50: 0.403 µM
  TGI: > 50 µM
COLO 205 colon
  GI50: 5.72 µM
  TGI: 19.5 µM
K-562 leukemia
  GI50: 1.75 µM
  TGI: > 50 µM
SK-OV-3 ovarian
  GI50: 3.99 µM
  TGI: > 50 µM
MOLT-4 leukemia
  GI50: 1.67 µM
  TGI: 21.2 µM
OVCAR-3 ovarian
  GI50: 2.55 µM
  TGI: > 50 µM
OVCAR-8 ovarian
  GI50: 4.77 µM
  TGI: > 50 µM
NCI-H522 lung
  GI50: 15 µM
  TGI: > 50 µM
SK-MEL-2 melanoma
  GI50: 2.48 µM
  TGI: 26.9 µM
HL-60(TB) leukemia
  GI50: 2.9 µM
  TGI: 17.5 µM
LOX IMVI melanoma
  GI50: 5.72 µM
  TGI: > 50 µM
DU-145 prostate
  GI50: 10.9 µM
  TGI: > 50 µM
MALME-3M melanoma
  GI50: 22.9 µM
  TGI: > 50 µM
HCT-15 colon
  GI50: 9.35 µM
  TGI: > 50 µM
RPMI-8226 leukemia
  GI50: 11 µM
  TGI: > 50 µM
CCRF-CEM leukemia
  GI50: 1.84 µM
  TGI: > 50 µM
OVCAR-5 ovarian
  GI50: 19.3 µM
  TGI: > 50 µM
NCI-H226 lung
  GI50: 16.3 µM
  TGI: > 50 µM
HS 578T breast
  GI50: 13.1 µM
  TGI: > 50 µM
T-47D breast
  GI50: 26 µM
  TGI: > 50 µM
SF-539 CNS
  GI50: 1.34 µM
  TGI: 26.2 µM
SF-268 CNS
  GI50: 16.2 µM
  TGI: > 50 µM
PC-3 prostate
  GI50: 21 µM
  TGI: > 50 µM
UACC-257 melanoma
  GI50: 19.9 µM
  TGI: > 50 µM
